# Measured values published in ChEMBL document CHEMBL1909046, “DrugMatrix in vitro pharmacology data”.
# Tests used:
# Endothelin-1 receptor = target: T1, Endothelin-1 receptor (Homo sapiens, UniProt P25101); assay type: cell membranes, Membrane; details: cho-k1; further: in other assays of this panel Not Active means under 50% inhibition at 10 µM
# T1 sequence (P25101 whole entry): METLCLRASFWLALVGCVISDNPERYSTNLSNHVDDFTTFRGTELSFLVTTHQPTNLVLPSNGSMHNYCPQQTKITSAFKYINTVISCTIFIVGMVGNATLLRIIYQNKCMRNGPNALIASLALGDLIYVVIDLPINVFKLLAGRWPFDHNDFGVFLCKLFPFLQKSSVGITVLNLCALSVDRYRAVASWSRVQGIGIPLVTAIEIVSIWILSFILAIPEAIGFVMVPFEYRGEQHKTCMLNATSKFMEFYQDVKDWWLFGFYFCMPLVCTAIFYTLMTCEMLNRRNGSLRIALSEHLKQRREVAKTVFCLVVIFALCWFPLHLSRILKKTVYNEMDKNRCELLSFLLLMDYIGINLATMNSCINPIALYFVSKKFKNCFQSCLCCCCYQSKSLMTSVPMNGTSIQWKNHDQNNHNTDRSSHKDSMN
# [1] = target: T2, Alpha-1A adrenergic receptor (Rattus norvegicus, UniProt P43140); assay: DRUGMATRIX: Alpha-1A adrenergic receptor radioligand binding (ligand: prazosin); assay type: cell membranes, Wistar, Submaxillary gland, Membrane; details: Not Active = under 50% inhibition at 10 µM
# T2 sequence (P43140 whole entry): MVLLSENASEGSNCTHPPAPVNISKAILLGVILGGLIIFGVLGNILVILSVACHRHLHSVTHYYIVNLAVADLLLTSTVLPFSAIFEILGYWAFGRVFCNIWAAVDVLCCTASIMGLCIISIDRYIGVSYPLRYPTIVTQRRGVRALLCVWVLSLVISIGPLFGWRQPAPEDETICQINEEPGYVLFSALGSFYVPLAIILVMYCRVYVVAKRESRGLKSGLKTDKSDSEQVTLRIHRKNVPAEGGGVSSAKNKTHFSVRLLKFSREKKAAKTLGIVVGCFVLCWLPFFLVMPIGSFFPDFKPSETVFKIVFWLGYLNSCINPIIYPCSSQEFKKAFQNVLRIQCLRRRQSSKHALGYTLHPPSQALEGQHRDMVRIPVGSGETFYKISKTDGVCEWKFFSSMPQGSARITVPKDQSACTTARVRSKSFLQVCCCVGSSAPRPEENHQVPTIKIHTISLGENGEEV
# [2] = target: Protein kinase C alpha type (Homo sapiens, UniProt P17252); assay type: cell-based; details: sf9;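 further: inhibition of PKCalpha kinase activity measured in an enzyme assay with histone as the phosphorylation substrate; in other assays of this panel Not Active means under 50% inhibition at 10 µM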
# [3] = target: T3, Alpha-2A adrenergic receptor (Homo sapiens, UniProt P08913); assay type: cell membranes, Sf9, Membrane; details: sf9; further: in other assays of this panel Not Active means under 50% inhibition at 10 µM
# T3 sequence (P08913 whole entry): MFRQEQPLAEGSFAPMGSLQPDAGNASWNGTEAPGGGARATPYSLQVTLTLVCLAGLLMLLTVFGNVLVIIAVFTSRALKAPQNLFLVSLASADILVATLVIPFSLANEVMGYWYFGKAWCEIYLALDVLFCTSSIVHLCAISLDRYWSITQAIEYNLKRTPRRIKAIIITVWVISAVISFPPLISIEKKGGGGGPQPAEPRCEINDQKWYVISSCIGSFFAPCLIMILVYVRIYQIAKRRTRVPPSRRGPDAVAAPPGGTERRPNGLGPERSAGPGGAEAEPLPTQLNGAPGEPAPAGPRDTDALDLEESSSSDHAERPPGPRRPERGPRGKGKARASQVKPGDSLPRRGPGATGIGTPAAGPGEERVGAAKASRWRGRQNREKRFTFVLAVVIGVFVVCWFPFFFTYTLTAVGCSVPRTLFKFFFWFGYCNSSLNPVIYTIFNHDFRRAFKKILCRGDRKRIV
# [4] = DRUGMATRIX: Calcium Channel Type L, Phenylalkylamine radioligand binding (ligand: [3H] (-)-Desmethoxyverapamil (D-888)); assay type: cell membranes, Rattus norvegicus, Wistar, Brain, Membrane; details: Not Active = under 50% inhibition at 10 µM
# [5] = DRUGMATRIX: GABAA, Flunitrazepam, Central radioligand binding (ligand: [3H] Flunitrazepam); assay type: cell membranes, Rattus norvegicus, Wistar, Brain, Membrane; details: Not Active = under 50% inhibition at 10 µM
Compound,IC50 (Endothelin-1 receptor),IC50 [1],IC50 [2],IC50 [3],IC50 [4],Ki [4],IC50 [5],Ki [5],IC50 ([4]; read-out: IC50) [µM],Ki ([4]; read-out: Ki) [µM]
O=C(O)CNCP(=O)(O)O [GLYPHOSATE],Not Active,Not Active,Not Active,Not Active,Not Active,Not Active,Not Active,Not Active,,
c1ccc2c(c1)Nc1ccccc1S2 [PHENOTHIAZINE],Not Active,Not Active,Not Active,Not Active,Not Active,Not Active,Not Active,Not Active,,
OC[C@H]1OC2C3[C@@H](CO)OC(O[C@H]4[C@H](O)[C@@H](O)[C@@H](O[C@H]5[C@H](O)[C@@H](O)[C@@H](O[C@H]6[C@H](O)[C@@H](O)[C@@H](O[C@H]7[C@H](O)[C@@H](O)[C@@H](O[C@H]8[C@H](O)[C@@H](O)[C@@H](O[C@H]9[C@H](O)[C@@H](O)C(OC1[C@H](O)[C@H]2O)O[C@@H]9CO)O[C@@H]8CO)O[C@@H]7CO)O[C@@H]6CO)O[C@@H]5CO)O[C@@H]4CO)[C@H](O)[C@H]3O,Not Active,Not Active,Not Active,Not Active,Not Active,Not Active,Not Active,Not Active,,
CC(C)Cc1ccc([C@H](C)C(=O)O)cc1 [DEXIBUPROFEN],Not Active,Not Active,Not Active,Not Active,Not Active,Not Active,Not Active,Not Active,,
CC(N)Cc1c[nH]c2ccc(OCc3cccs3)cc12 (stereo unspecified) [BW-723C86],Not Active,Not Active,Not Active,Not Active,,,Not Active,Not Active,4.34,4.22
CC(=O)[C@]1(O)Cc2c(O)c3c(c(O)c2[C@@H](O[C@H]2C[C@H](N)[C@H](O)[C@H](C)O2)C1)C(=O)c1ccccc1C3=O [IDARUBICIN],Not Active,Not Active,Not Active,Not Active,Not Active,Not Active,Not Active,Not Active,,
NC(=O)NC(=O)Cc1ccccc1 [PHENACEMIDE],Not Active,Not Active,Not Active,Not Active,Not Active,Not Active,Not Active,Not Active,,
Nc1ccc(C(=O)O)c(O)c1 [AMINOSALICYLIC ACID],Not Active,Not Active,Not Active,Not Active,Not Active,Not Active,Not Active,Not Active,,
Nc1nc(N)c2nc(CNc3ccc(C(=O)N[C@@H](CCC(=O)O)C(=O)O)cc3)cnc2n1 [AMINOPTERIN],Not Active,Not Active,Not Active,Not Active,Not Active,Not Active,Not Active,Not Active,,
c1ccc(Cn2ccnc2)cc1,Not Active,Not Active,Not Active,Not Active,Not Active,Not Active,Not Active,Not Active,,
CC(C)(C#N)c1cc(Cn2cncn2)cc(C(C)(C)C#N)c1 [ANASTROZOLE],Not Active,Not Active,Not Active,Not Active,Not Active,Not Active,Not Active,Not Active,,
COc1cc(/C=C/C(=O)O)ccc1O [FERULATE],Not Active,Not Active,Not Active,Not Active,Not Active,Not Active,Not Active,Not Active,,
